According to patent US6204295A, “Antioxidant compounds” (Orion Corporation, priority 1996, dated 2001):
Read-outs that look alike come from different tables or passages of the source.

Assays:
[1] = system: lipid peroxidation in rat liver microsomes; assay: Inhibition of t-butylhydroperoxide-induced lipid peroxidation in rat liver microsomes (luminol chemiluminescence); type: biochemical, rat (Sprague-Dawley); conditions: for antioxidant potency in the t-BuOOH test compared with butylated hydroxyanisole: in words, versus butylated hydroxyanisole; for IC50: t-BuOOH, rat liver microsomes 1.5 μg protein/ml, pH 10.2, 33° C., about 45 min, read-out: IC50 values for the inhibition of microsomal lipid peroxidation, initiated by t-Butylhydroperoxide
Method: (§2) Adult male Sprague-Dawley rats were decapitated, and the liver was excised and chilled in ice-cold 0.25 M sucrose solution. A 20% (w/v) liver homogenate was prepared in the sucrose solution (0° C.) with a homogenizer. Microsomes were prepared from the postmitochondrial (12000×g for 10 min at 4° C.) supernatant fluid by centrifugation (105000×g for 10 min at 4° C.).
(§3) The antioxidant properties of the compounds were estimated by their potency to inhibit t-butylhydroperoxide (t-BuOOH) or ascorbate/ADP-FeCl3 -induced lipid peroxidation in rat liver microsomes in vitro. In the t-BuOOH assay the buffer (50 mM sodium carbonate, pH 10.2, with 0.1 mM EDTA) was pipetted in a volume of 0.8 ml in the luminometer cuvette. 20 μl of diluted rat liver microsomes (final concentration 1.5 μg protein/ml) was added, followed by 6 μl of luminol (0.5 mg/ml) and test compounds. The reaction was initiated by 0.05 ml of 0.9 mM t-BuOOH at 33° C. The chemiluminescence was measured for about 45 min and the area under the curve was calculated. In the ascorbate/ADP-FeCl3 assay microsomes (final concentration 1.2 mg protein/ml) in 20 mM phosphate buffer, including 90 mM KCl, were incubated for 20 min at 37° C. in the presence of ascorbate (0.5 mM final concentration; pH of the buffer 6.0), ADP and FeCl3 (final concentrations 0.85 and 0.05 mM, respectively) and test compounds. Total incubation volume was 0.5 ml. The incubation was stopped by addition of 0.5 ml of 30% trichloroacetic acid plus 0.05 ml 2% butylated hydroxytoluene in ethanol. The extent of lipid peroxidation was estimated by the amount of thiobarbituric acid (TBA) reactive material formed.
(§4) IC50 value means concentration of test compound that inhibits lipid peroxidation by 50%.

[2] = system: lipid peroxidation in rat liver microsomes; assay: Inhibition of ascorbate/ADP-FeCl3-induced lipid peroxidation in rat liver microsomes (TBA reactive material); type: biochemical, rat (Sprague-Dawley); conditions: rat liver microsomes 1.2 mg protein/ml, pH 6.0, 20 min at 37° C., read-out: IC50 values for the inhibition of microsomal lipid peroxidation, initiated by Ascorbate/ADP-FeCl3
Method: as §2, §3, §4

[3] = biological target: T1, NADPH oxidase of the neutrophils (Homo sapiens, UniProt P04839); assay: Inhibition of reactive oxygen production (oxidative burst) by PMA-activated neutrophils, luminol enhanced chemiluminescence; type: cell-based; conditions: for inhibition at 1000 µM: read-out: Inhibition of NADPH oxidase of the neutrophils at 1 mM
T1 construct: Neutrophils were isolated from 30 ml freshly drawn heparinized whole blood; endogenous in cells; host or cells: neutrophils isolated from freshly drawn heparinized whole blood
T1 sequence (P04839 2-570 limits assumed): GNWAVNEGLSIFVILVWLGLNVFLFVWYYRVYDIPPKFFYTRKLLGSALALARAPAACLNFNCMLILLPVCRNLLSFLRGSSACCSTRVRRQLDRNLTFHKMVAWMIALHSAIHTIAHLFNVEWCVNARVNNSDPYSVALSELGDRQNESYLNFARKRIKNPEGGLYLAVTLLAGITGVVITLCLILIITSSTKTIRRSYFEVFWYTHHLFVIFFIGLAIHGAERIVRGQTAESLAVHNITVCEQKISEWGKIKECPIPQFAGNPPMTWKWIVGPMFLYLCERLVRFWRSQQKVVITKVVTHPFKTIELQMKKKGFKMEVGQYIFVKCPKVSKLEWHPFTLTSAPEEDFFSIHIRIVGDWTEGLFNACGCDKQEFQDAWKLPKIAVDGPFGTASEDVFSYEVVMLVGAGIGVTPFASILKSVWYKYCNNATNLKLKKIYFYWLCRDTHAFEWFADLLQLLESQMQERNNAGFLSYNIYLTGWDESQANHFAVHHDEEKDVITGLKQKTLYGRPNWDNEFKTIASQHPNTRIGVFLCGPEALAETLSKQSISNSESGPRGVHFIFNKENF
T1 sequence (P13498 2-195 partner limits assumed): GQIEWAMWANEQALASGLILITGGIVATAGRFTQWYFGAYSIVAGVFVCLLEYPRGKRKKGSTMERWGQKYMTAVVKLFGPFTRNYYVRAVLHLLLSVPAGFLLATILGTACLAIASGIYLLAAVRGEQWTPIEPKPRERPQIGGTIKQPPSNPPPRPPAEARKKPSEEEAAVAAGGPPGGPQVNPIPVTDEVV
Method: Neutrophils were isolated from 30 ml freshly drawn heparinized whole blood, after dextran sedimentation of erythrocytes for 30 min. The leucocyte rich plasma was layered over an equal volume of Percoll (Sigma) and centrifuged at 400 g for 15 min. […] Neutrophils were washed with PBS (pH 7.1) and centrifuged at 200 g for 10 min. Cells were resuspended in fresh HBS (containing […], 0.4 g KCl, 0.06 g Na2 HPO4×2H2 O, 0.06 g KH2 PO4, 0.1 g MgSO4×7H2 O and 1 g glucose in 1000 ml of distilled water; pH adjusted to 7.4 by 7% NaHCO3) and counted before use.
One ml of cell suspension (final cell count 10^6 cells/ml) and the test compound was placed in cuvettes. Production of reactive oxygen by neutrophils ("oxidative burst") was stimulated by addition of phorbol-myristate-acetate (PMA; final concentration 2 μM). The luminol enhanced chemiluminescence was recorded.

[4] = system: serum lipid peroxides (diene conjugation); assay: In vivo serum lipid peroxides, diene conjugation; parameters: species or system rat (female Sprague-Dawley); conditions: rats; daily oral gavage 12 and 48 mg/kg; 2 days to 12 months; FIG. 1
Method: (§1) Test compound was given to six-week old female Sprague-Dawley rats daily by oral gavage at doses of 12 and 48 mg/kg for 12 months. The vehicle, carboxymethyl cellulose (0.5%), was given to control animals. Five rats per dose group were killed after 2 days, 5 weeks, 3, 6 and 12 months of dosing. Further groups were allowed to recover for 13 weeks without treatment after 6 and 12 months' dosing. The serum levels of lipid peroxides were measured by two different methods (diene conjugation and TBA-reactive material). For the measurement of diene conjugation, lipids extracted from serum samples (100 μl) by chloroform/methanol (2:1), dried under nitrogen and redissolved in cyclohexane, were analyzed spectrophotometrically (at 234 nm). For the analysis of TBA-reactive material serum samples (100 μl) were diluted in phosphate buffer and heated together with a TBA solution ([…]) in a boiling water bath for 15 min. The tubes were cooled, and the absorbances measured at 535 nm.

[5] = system: serum lipid peroxides (TBA-reactive material); assay: In vivo serum lipid peroxides, TBA-reactive material; parameters: species or system rat (female Sprague-Dawley); conditions: rats; daily oral gavage 12 and 48 mg/kg; 2 days to 12 months; FIG. 2
Method: as §1

[6] = PMA 2 μM, 10^6 cells/ml, read-out: IC50, inhibition of NADPH oxidase of the neutrophils

| SMILES | IC50 [1] | IC50 [2] | inhibition at 1000 µM ([3]; 1 mM, PMA 2 μM, 10^6 cells/ml) | also measured |
| --- | --- | --- | --- | --- |
| CN(C)CCOc1ccc(/C(=C(/CCCl)c2ccccc2)c2ccc(O)cc2)cc1 [Compound 2, 4-chloro-1-(4-hydroxyphenyl)-1-[4-[2-(N,N-dimethylamino)ethoxy]phenyl]-2-phenyl-1-butene] | 0.18 µM | 8 µM | > 99% | antioxidant potency in the t-BuOOH test compared with butylated hydroxyanisole [1]: even stronger than that of the known synthetic antioxidant butylated hydroxyanisole; IC50 [3, 6]: 2.12 µM |
| COc1ccc(O)c(C(C)(C)C)c1 [butylated hydroxyanisole] | 1.1 µM | 0.2 µM |  |  |
| Cc1c(C)c2c(c(C)c1O)CCC(C)(C(=O)O)O2 (stereo not shown) [Trolox] |  |  | 59% | Inhibition of NADPH oxidase of the neutrophils at 1 mM ([3]; 1 mM, PMA 2 μM, 10^6 cells/ml): no effect |
| C[C@]12CC[C@@H]3c4ccc(O)cc4CC[C@H]3[C@@H]1CC[C@@H]2O [17β-estradiol] | 4.6 µM | 300 µM |  | Inhibition of NADPH oxidase of the neutrophils at 1 mM ([3]; 1 mM, PMA 2 μM, 10^6 cells/ml): no effect |
| CN(C)CCOc1ccc(/C(=C(/CCI)c2ccccc2)c2ccccc2)cc1 [Compound 4, 4-iodo-1,2-diphenyl-1-[4-[2-(N,N-dimethylamino)ethoxy]phenyl]-1-butene] | 0.38 µM | 3 µM | > 99% | antioxidant potency in the t-BuOOH test compared with butylated hydroxyanisole [1]: even stronger than that of the known synthetic antioxidant butylated hydroxyanisole; IC50 [3, 6]: 2.32 µM |
| Cc1c(C)c2c(c(C)c1O)CCC(C)(CCCC(C)CCCC(C)CCCC(C)C)O2 (stereo not drawn) [α-tocopherol] | 2 µM | 43 µM |  |  |
| CC/C(=C(/CC)c1ccc(O)cc1)c1ccc(O)cc1 [diethylstilbestrol] |  |  |  | IC50 [3]: 8 µM; inhibition at 1000 µM [3]: > 99% |
| CN(C)CCOc1ccc(/C(=C(\CCCl)c2ccccc2)c2ccccc2)cc1 [Compound 5, 4-chloro-1,2-diphenyl-1-[4-[2-(N,N-dimethylamino)ethoxy]phenyl]-1-butene] | 410 µM | 36 µM |  |  |
| CNCCOc1ccc(/C(=C(/CCCl)c2ccccc2)c2ccc(O)cc2)cc1 [Compound 3, 4-chloro-1-(4-hydroxyphenyl)-1-[4-[2-(N-methylamino)ethoxy]phenyl]-2-phenyl-1-butene] | 27 µM | 31 µM |  |  |
| CN(C)CCOc1ccc(/C(=C(/CCCl)c2ccccc2)c2ccccc2)cc1 [Compound 1, 4-chloro-1,2-diphenyl-1-[4-[2-(N,N-dimethylamino)ethoxy]phenyl]-1-butene] | 450 µM | 18 µM |  | effect on serum diene conjugation [4]: effective in decreasing both diene conjugation and TBA-reactive material in rats; IC50 [3]: 2.17 µM; inhibition at 1000 µM [3]: > 99%; effect on serum TBA-reactive material [5]: effective in decreasing both diene conjugation and TBA-reactive material in rats |
